From publication PMC8185074, “Anchor extension: a structure-guided approach to design cyclic peptides targeting enzyme active sites” (Nature Communications, 2021)
Peptide text beside a SMILES is read from it.

Columns and labels:
Format in all cases: biochemical
[1] = biological target: T1, HDAC1 (Homo sapiens, UniProt Q13547); assay: HDAC1 inhibition, full IC50 measurement (Reaction Biology; fluorogenic p53 peptide RHKK(Ac)AMC); conditions: t1/t2 replicates
T1 construct: purchased Reaction Biology Corporation (assay run by the CRO)
T1 sequence (Q13547 whole entry): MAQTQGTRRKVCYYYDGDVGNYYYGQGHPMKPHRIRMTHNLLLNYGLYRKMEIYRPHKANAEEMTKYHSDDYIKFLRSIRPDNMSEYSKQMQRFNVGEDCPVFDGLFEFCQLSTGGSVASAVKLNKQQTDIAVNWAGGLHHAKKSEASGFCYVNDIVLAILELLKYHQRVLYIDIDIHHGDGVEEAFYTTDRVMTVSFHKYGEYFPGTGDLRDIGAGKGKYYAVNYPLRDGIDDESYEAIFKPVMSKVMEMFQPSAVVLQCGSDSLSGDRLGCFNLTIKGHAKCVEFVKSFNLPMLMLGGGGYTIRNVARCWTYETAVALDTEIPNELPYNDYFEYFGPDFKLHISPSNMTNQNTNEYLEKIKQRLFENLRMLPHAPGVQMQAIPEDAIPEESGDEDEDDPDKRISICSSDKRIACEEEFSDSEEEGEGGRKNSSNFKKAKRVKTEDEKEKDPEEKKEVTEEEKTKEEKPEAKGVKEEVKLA
In short: (§1)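 The reaction was a 1 h, 30 °C incubation of enzyme, acoustically added peptide and 50 μM p53-derived AMC substrate in pH 8.0 Tris buffer with NaCl, KCl, MgCl2, 1 mg/ml BSA and 1% DMSO. Duplicate values were averaged.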

[2] = biological target: T2, HDAC8 (Homo sapiens, UniProt Q9BY41); assay: HDAC8 inhibition, full IC50 measurement (Reaction Biology; fluorogenic p53 peptide RHKK(Ac)AMC); conditions: t1/t2 replicates
T2 construct: purchased Reaction Biology Corporation (assay run by the CRO)
T2 sequence (Q9BY41 1-377): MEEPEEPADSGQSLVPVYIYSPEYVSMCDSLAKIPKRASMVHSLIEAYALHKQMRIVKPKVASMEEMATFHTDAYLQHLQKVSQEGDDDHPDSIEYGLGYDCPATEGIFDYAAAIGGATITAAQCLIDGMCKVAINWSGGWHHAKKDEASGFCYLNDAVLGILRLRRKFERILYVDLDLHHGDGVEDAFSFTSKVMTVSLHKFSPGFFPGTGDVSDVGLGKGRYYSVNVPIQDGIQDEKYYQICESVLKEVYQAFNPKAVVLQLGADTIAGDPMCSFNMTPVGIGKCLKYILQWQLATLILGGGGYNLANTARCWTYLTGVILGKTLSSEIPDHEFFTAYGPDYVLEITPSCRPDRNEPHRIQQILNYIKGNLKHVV
In short: as §1

[3] = biological target: T3, HDAC2 (Homo sapiens, UniProt Q92769); assay: HDAC2 inhibition, full IC50 measurement (Reaction Biology; fluorogenic p53 peptide RHKK(Ac)AMC)
T3 construct: purchased Reaction Biology Corporation (assay run by the CRO)
T3 sequence (Q92769 whole entry): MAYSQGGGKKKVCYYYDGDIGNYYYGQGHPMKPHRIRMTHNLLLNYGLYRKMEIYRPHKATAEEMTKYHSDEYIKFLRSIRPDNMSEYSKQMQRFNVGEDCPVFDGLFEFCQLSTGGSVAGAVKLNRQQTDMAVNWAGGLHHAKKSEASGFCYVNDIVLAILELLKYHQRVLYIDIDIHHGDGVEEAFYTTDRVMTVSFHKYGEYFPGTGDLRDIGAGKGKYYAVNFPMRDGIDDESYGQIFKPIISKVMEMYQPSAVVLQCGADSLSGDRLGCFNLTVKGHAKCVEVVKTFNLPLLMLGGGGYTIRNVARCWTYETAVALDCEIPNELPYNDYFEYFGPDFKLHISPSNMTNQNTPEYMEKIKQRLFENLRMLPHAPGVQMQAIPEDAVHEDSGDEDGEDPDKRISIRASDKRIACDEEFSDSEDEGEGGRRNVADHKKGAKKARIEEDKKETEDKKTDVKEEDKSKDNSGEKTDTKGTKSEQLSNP
In short: as §1

[4] = biological target: T4, HDAC3 (Homo sapiens, UniProt O15379); assay: HDAC3 inhibition, full IC50 measurement (Reaction Biology; fluorogenic p53 peptide RHKK(Ac)AMC)
T4 construct: purchased Reaction Biology Corporation (assay run by the CRO)
T4 sequence (O15379 whole entry): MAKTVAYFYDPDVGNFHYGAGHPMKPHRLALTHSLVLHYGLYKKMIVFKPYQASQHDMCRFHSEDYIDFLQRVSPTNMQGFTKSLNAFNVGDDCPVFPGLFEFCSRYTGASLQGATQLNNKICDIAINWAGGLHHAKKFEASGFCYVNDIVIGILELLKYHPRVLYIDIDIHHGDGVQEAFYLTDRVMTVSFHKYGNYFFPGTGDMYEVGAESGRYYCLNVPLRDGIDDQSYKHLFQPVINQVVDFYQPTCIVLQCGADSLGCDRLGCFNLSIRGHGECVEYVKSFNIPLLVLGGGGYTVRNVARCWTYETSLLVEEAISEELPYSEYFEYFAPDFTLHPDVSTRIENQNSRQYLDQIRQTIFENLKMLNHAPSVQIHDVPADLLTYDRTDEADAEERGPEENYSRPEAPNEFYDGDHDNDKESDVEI
T4 sequence (Q9Y618 395-489 partner limits assumed): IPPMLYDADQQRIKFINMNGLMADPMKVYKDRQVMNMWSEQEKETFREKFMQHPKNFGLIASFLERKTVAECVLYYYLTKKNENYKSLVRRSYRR
In short: as §1

[5] = peptide conc. 1.00E-05 M, listed as des2.1.1_t1
[6] = peptide conc. 1.00E-05 M, listed as des2.1.1_t2
[7] = peptide conc. 1.11E-06 M, listed as des2.1.1_t1
[8] = peptide conc. 1.11E-06 M, listed as des2.1.1_t2
[9] = peptide conc. 1.23E-07 M, listed as des2.1.1_t1
[10] = peptide conc. 1.23E-07 M, listed as des2.1.1_t2
[11] = peptide conc. 1.37E-08 M, listed as des2.1.1_t1
[12] = peptide conc. 1.37E-08 M, listed as des2.1.1_t2
[13] = peptide conc. 1.52E-09 M, listed as des2.1.1_t1
[14] = peptide conc. 1.52E-09 M, listed as des2.1.1_t2
[15] = peptide conc. 3.33E-06 M, listed as des2.1.1_t1
[16] = peptide conc. 3.33E-06 M, listed as des2.1.1_t2
[17] = peptide conc. 3.70E-07 M, listed as des2.1.1_t1
[18] = peptide conc. 3.70E-07 M, listed as des2.1.1_t2
[19] = peptide conc. 4.12E-08 M, listed as des2.1.1_t1
[20] = peptide conc. 4.12E-08 M, listed as des2.1.1_t2
[21] = peptide conc. 4.57E-09 M, listed as des2.1.1_t1
[22] = peptide conc. 4.57E-09 M, listed as des2.1.1_t2
[23] = peptide conc. 5.08E-10 M, listed as des2.1.1_t1
[24] = peptide conc. 5.08E-10 M, listed as des2.1.1_t2

## CSCC[C@H]1NC(=O)[C@@H](CO)NC(=O)[C@H](CC(N)=O)NC(=O)[C@H](CC(=O)O)NC(=O)[C@@H]([C@H](C)O)NC(=O)[C@H](Cc2c[nH]c3ccccc23)NC(=O)[C@H](CCCCCS)NC(=O)[C@H](CCCCN)NC(=O)[C@@H](CC(=O)O)NC1=O [des2.1.1, SHA-Trp-dThr-Asp-Asn-dSer-dMet-dAsp-Lys] (HELM PEPTIDE1{D.N.[dS].[dM].[dD].K.[O=C([C@H](CCCCCS)N[*:1])[*:2]].W.[dT]}$PEPTIDE1,PEPTIDE1,1:R1-9:R2$$$V2.0)
[1]; [5]
  HDAC1 activity raw data (signal): -3296
[1]; [6]
  HDAC1 activity raw data (signal): -5
[1]; [7]
  HDAC1 activity raw data (signal): 15027
[1]; [8]
  HDAC1 activity raw data (signal): 19517
[1]; [9]
  HDAC1 activity raw data (signal): 121250
[1]; [10]
  HDAC1 activity raw data (signal): 94143
[1]; [11]
  HDAC1 activity raw data (signal): 426941
[1]; [12]
  HDAC1 activity raw data (signal): 417070
[1]; [13]
  HDAC1 activity raw data (signal): 888087
[1]; [14]
  HDAC1 activity raw data (signal): 854689
[1]; [15]
  HDAC1 activity raw data (signal): 5417
[1]; [16]
  HDAC1 activity raw data (signal): 8523
[1]; [17]
  HDAC1 activity raw data (signal): 47109
[1]; [18]
  HDAC1 activity raw data (signal): 41206
[1]; [19]
  HDAC1 activity raw data (signal): 257706
[1]; [20]
  HDAC1 activity raw data (signal): 221039
[1]; [21]
  HDAC1 activity raw data (signal): 716596
[1]; [22]
  HDAC1 activity raw data (signal): 664253
[1]; [23]
  HDAC1 activity raw data (signal): 1042274
[1]; [24]
  HDAC1 activity raw data (signal): 995234
[2]; [5]
  HDAC8 activity raw data (signal): 964380
[2]; [6]
  HDAC8 activity raw data (signal): 738285
[2]; [7]
  HDAC8 activity raw data (signal): 17568030
[2]; [8]
  HDAC8 activity raw data (signal): 18194235
[2]; [9]
  HDAC8 activity raw data (signal): 56084359
[2]; [10]
  HDAC8 activity raw data (signal): 53955732
[2]; [11]
  HDAC8 activity raw data (signal): 68600267
[2]; [12]
  HDAC8 activity raw data (signal): 68709597
[2]; [13]
  HDAC8 activity raw data (signal): 73629892
[2]; [14]
  HDAC8 activity raw data (signal): 68940487
[2]; [15]
  HDAC8 activity raw data (signal): 6524465
[2]; [16]
  HDAC8 activity raw data (signal): 5933628
[2]; [17]
  HDAC8 activity raw data (signal): 36548840
[2]; [18]
  HDAC8 activity raw data (signal): 38514186
[2]; [19]
  HDAC8 activity raw data (signal): 62692187
[2]; [20]
  HDAC8 activity raw data (signal): 60959948
[2]; [21]
  HDAC8 activity raw data (signal): 71596500
[2]; [22]
  HDAC8 activity raw data (signal): 73045422
[2]; [23]
  HDAC8 activity raw data (signal): 76849547
[2]; [24]
  HDAC8 activity raw data (signal): 76232042
[3]; Conc. 1.00E-05 M, t1
  HDAC2 activity raw data (signal): -452
[3]; Conc. 1.00E-05 M, t2
  HDAC2 activity raw data (signal): -1036
[3]; Conc. 1.11E-06 M, t1
  HDAC2 activity raw data (signal): 33890
[3]; Conc. 1.11E-06 M, t2
  HDAC2 activity raw data (signal): 38279
[3]; Conc. 1.23E-07 M, t1
  HDAC2 activity raw data (signal): 186095
[3]; Conc. 1.23E-07 M, t2
  HDAC2 activity raw data (signal): 182790
[3]; Conc. 1.37E-08 M, t1
  HDAC2 activity raw data (signal): 599694
[3]; Conc. 1.37E-08 M, t2
  HDAC2 activity raw data (signal): 552663
[3]; Conc. 1.52E-09 M, t1
  HDAC2 activity raw data (signal): 969892
[3]; Conc. 1.52E-09 M, t2
  HDAC2 activity raw data (signal): 886346
[3]; Conc. 3.33E-06 M, t1
  HDAC2 activity raw data (signal): 19780
[3]; Conc. 3.33E-06 M, t2
  HDAC2 activity raw data (signal): 13124
[3]; Conc. 3.70E-07 M, t1
  HDAC2 activity raw data (signal): 88233
[3]; Conc. 3.70E-07 M, t2
  HDAC2 activity raw data (signal): 84596
[3]; Conc. 4.12E-08 M, t1
  HDAC2 activity raw data (signal): 374430
[3]; Conc. 4.12E-08 M, t2
  HDAC2 activity raw data (signal): 356371
[3]; Conc. 4.57E-09 M, t1
  HDAC2 activity raw data (signal): 827090
[3]; Conc. 4.57E-09 M, t2
  HDAC2 activity raw data (signal): 782443
[3]; Conc. 5.08E-10 M, t1
  HDAC2 activity raw data (signal): 1119506
[3]; Conc. 5.08E-10 M, t2
  HDAC2 activity raw data (signal): 1036443
[3]; figure legends, Supp. Table 1, read-out: HDAC2 IC50
  IC50: 16.3 nM
[4]; Conc. 1.00E-05 M, t1
  HDAC3 activity raw data (signal): 7144
[4]; Conc. 1.00E-05 M, t2
  HDAC3 activity raw data (signal): 5841
[4]; Conc. 1.11E-06 M, t1
  HDAC3 activity raw data (signal): 51390
[4]; Conc. 1.11E-06 M, t2
  HDAC3 activity raw data (signal): 54678
[4]; Conc. 1.23E-07 M, t1
  HDAC3 activity raw data (signal): 246556
[4]; Conc. 1.23E-07 M, t2
  HDAC3 activity raw data (signal): 273031
[4]; Conc. 1.37E-08 M, t1
  HDAC3 activity raw data (signal): 687389
[4]; Conc. 1.37E-08 M, t2
  HDAC3 activity raw data (signal): 738917
[4]; Conc. 1.52E-09 M, t1
  HDAC3 activity raw data (signal): 1292643
[4]; Conc. 1.52E-09 M, t2
  HDAC3 activity raw data (signal): 1253696
[4]; Conc. 3.33E-06 M, t1
  HDAC3 activity raw data (signal): 22832
[4]; Conc. 3.33E-06 M, t2
  HDAC3 activity raw data (signal): 23560
[4]; Conc. 3.70E-07 M, t1
  HDAC3 activity raw data (signal): 127387
[4]; Conc. 3.70E-07 M, t2
  HDAC3 activity raw data (signal): 114572
[4]; Conc. 4.12E-08 M, t1
  HDAC3 activity raw data (signal): 487885
[4]; Conc. 4.12E-08 M, t2
  HDAC3 activity raw data (signal): 457810
[4]; Conc. 4.57E-09 M, t1
  HDAC3 activity raw data (signal): 1034207
[4]; Conc. 4.57E-09 M, t2
  HDAC3 activity raw data (signal): 1052923
[4]; Conc. 5.08E-10 M, t1
  HDAC3 activity raw data (signal): 1393662
[4]; Conc. 5.08E-10 M, t2
  HDAC3 activity raw data (signal): 1455609
